Results published in patent publication US9624155B2, “Iron (III) citrate, substantially free of beta-iron hydroxide oxide” (Japan Tobacco Inc., priority 2011, dated 2017).

Test: Specific surface area by nitrogen gas adsorption (BET)
Assay type: physicochemical
Settings: relative pressure 0.05 to 0.3 (BET surface area)
Procedure: A specific surface area can be measured by, for example, but is not limited to, BET surface area measurement via nitrogen gas adsorption (relative pressure: 0.05 to 0.3).
Specific surface areas of iron(III) citrates of Comparative Examples 11 and 12 and Examples 1, 4, 5, 6, 7, and 10 to 23 were measured by nitrogen gas adsorption (relative pressure: 0.05 to 0.3) (BET surface area).

SMILES | Specific surface area [m^2/g]
O=C([O-])CC(O)(CC(=O)[O-])C(=O)[O-].[Fe+3] [Example 12, Iron(III) citrate] | 30.3
O=C([O-])CC(O)(CC(=O)[O-])C(=O)[O-].[Fe+3] [Example 16, Iron(III) citrate] | 33.7
O=C([O-])CC(O)(CC(=O)[O-])C(=O)[O-].[Fe+3] [Example 15, Iron(III) citrate] | 38.5
O=C([O-])CC(O)(CC(=O)[O-])C(=O)[O-].[Fe+3] [Example 20, Iron(III) citrate] | 33.8
O=C([O-])CC(O)(CC(=O)[O-])C(=O)[O-].[Fe+3] [Comparative Example 11, iron(III) citrate] | 0.80
O=C([O-])CC(O)(CC(=O)[O-])C(=O)[O-].[Fe+3] [Example 7, Iron(III) citrate] | 29.8
O=C([O-])CC(O)(CC(=O)[O-])C(=O)[O-].[Fe+3] [Example 5, Iron(III) citrate] | 31.0
O=C([O-])CC(O)(CC(=O)[O-])C(=O)[O-].[Fe+3] [Example 4, iron(III) citrate] | 33.4
O=C([O-])CC(O)(CC(=O)[O-])C(=O)[O-].[Fe+3] [Example 6, Iron(III) citrate] | 30.4
O=C([O-])CC(O)(CC(=O)[O-])C(=O)[O-].[Fe+3] [Example 23, Iron(III) citrate] | 32.8
O=C([O-])CC(O)(CC(=O)[O-])C(=O)[O-].[Fe+3] [Example 11, Iron(III) citrate] | 30.0
O=C([O-])CC(O)(CC(=O)[O-])C(=O)[O-].[Fe+3] [Comparative Example 12, iron(III) citrate] | 0.62
O=C([O-])CC(O)(CC(=O)[O-])C(=O)[O-].[Fe+3] [Example 21, Iron(III) citrate] | 35.5
O=C([O-])CC(O)(CC(=O)[O-])C(=O)[O-].[Fe+3] [Example 17, Iron(III) citrate] | 32.4
O=C([O-])CC(O)(CC(=O)[O-])C(=O)[O-].[Fe+3] [Example 10, Iron(III) citrate] | 29.9
O=C([O-])CC(O)(CC(=O)[O-])C(=O)[O-].[Fe+3] [Example 19, Iron(III) citrate] | 39.8
O=C([O-])CC(O)(CC(=O)[O-])C(=O)[O-].[Fe+3] [Example 22, Iron(III) citrate] | 32.6
O=C([O-])CC(O)(CC(=O)[O-])C(=O)[O-].[Fe+3] [Example 1, iron(III) citrate] | 21.8
O=C([O-])CC(O)(CC(=O)[O-])C(=O)[O-].[Fe+3] [Example 13, Iron(III) citrate] | 29.1
O=C([O-])CC(O)(CC(=O)[O-])C(=O)[O-].[Fe+3] [Example 18, Iron(III) citrate] | 39.9
O=C([O-])CC(O)(CC(=O)[O-])C(=O)[O-].[Fe+3] [Example 14, Iron(III) citrate] | 37.9
